Reference: publication PMC6158189, “A pharmacological probe identifies cystathionine β-synthase as a new negative regulator for ferroptosis” (Cell Death & Disease, 2018)
“Also recorded” adds a separate entry of the source.

Assays:
[1] = molecular target: T1, hCBS-FL wild type (293T-CBS WT) (Homo sapiens, UniProt P35520); test: H2S in HEK293T cells stably expressing hCBS WT (AzMC probe); format: cell-based; settings: 8 h, 293T-CBS WT
T1 construct: human CBS or hCSE full-length (CBS-FL or CSE) was subcloned into pGEX-KG, pcDNA3 or pCDH vector; expressed in transfected cells
T1 sequence (P35520 1-551): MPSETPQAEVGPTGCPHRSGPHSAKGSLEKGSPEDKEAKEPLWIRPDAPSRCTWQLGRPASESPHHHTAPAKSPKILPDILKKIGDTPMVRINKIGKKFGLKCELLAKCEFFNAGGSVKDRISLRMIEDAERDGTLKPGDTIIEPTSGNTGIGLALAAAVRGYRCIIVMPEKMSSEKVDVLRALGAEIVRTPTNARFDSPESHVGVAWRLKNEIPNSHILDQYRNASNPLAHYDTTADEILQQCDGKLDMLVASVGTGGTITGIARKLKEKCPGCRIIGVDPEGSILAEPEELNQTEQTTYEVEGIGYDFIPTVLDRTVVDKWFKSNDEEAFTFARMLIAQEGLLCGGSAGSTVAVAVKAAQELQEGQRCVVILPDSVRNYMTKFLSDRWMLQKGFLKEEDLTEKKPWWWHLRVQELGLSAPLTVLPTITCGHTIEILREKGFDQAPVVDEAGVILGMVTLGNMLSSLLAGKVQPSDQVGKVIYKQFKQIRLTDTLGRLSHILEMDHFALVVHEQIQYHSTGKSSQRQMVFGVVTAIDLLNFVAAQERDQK
Protocol: HEK293T cells were transiently transfected with empty vector (EV, i and ii), hCBS-FL (iii and iv) or hCSE (v and vi) plasmids, followed by incubation with DMSO (i–iii and v) or 10 μM CH004 (iv and vi) for 8 h before staining with 50 μM AzMC, a H2S-specific probe (“Materials and Methods” section). For larger fluorescent and bright-field images, please see Supplementary Figure 4. The expression levels of hCBS or hCSE in HEK293T cells after transient transfections were determined by western blotting using an anti-CBS antibody (3E1, 1:2000; Abnova) or anti-CSE antibody (1:500, GeneTex). The densities of protein bands for hCBS or hCSE in the blots were quantified with the ImageJ software (National Institutes of Health, Bethesda, MD, USA) and expressed as ratios of respective control (EV group). All immunoblots are representative of at least two independent experiments using GAPDH as the loading control. The fluorescent images of the H2S (blue) were accordingly quantified (“Materials and Methods” section) with ImageJ. […] The DMSO groups of the controls (CTR), which are expressing of hCBS or hCSE, were normalized to 100% and the levels of H2S in CH004-treated or EV group are shown as relative percentages. c, d CH004 dose-dependently suppresses the activity of hCBS WT without affecting the activity of CH004-insensitive mutant. HEK293T cells stably expressing EV (i and ii), hCBS-FL wild type (293T-CBS WT; iii–v) or CBS-FL mutant (293T-CBS Q222A, vi–viii) were treated with DMSO (i–iii and vi), 5 μM CH004 (iv, vii) or 10 μM CH004 (v, viii) for 8 h before staining with the AzMC. For larger fluorescent and bright-field images, please see Supplementary Figures 5–6. […] The DMSO groups of the controls (CTR), which are expressing of hCBS-FL wt or Q222A mutant, were normalized to 100% and the levels of H2S in CH004-treated or EV group are shown as relative percentages. A representative fluorescence image from three independent experiments is shown. Means ± SDS (n = 3). Statistical analyses were performed on the raw data for each group by one-way (b) or two-way (d) ANOVA with Bonferroni post-tests. ***p < 0.001. Bars, 50 μm
H2S levels in living cells were detected using a H2S-specific fluorescent probe according to a protocol described previously[31],[55]. To measure H2S in transiently transfected HEK293T cells, the cells were seeded on poly-D-Lys-coated coverslips (Thermo Scientific, Waltham, MA, USA) in 12-well plates at a density of ~ 1 × 10^5 cells per well, and hCBS or hCSE plasmids were transiently transfected by X-tremeGENE HP DNA Transfection Reagent according to the manufacturer’s protocol (Roche, Basel, Switzerland). […] After incubation with 50 μM AzMC at 37 °C for 30 min, the cells were washed 4 times with PBS, and the fluorescent images were recorded with excitation by 405 nm laser by using a A1Si (Nikon) confocal microscope. The intensity of the blue fluorescent signals, indicating the amount of H2S, was quantified by ImageJ software (NIH, Bethesda, ML). The H2S signal was then corrected for the background signal detected in HEK293T cells transiently or stably expressing of empty vector (HEK293T-EV) and normalized by the corresponding cell-occupying area and compared with the control (DMSO group, 100%). Similarly, the H2S signal in HepG2 cells was quantified by AzMC staining, corrected for the background signal outside the cells, normalized by the cell area and expressed as percentages of DMSO control (100%). […]

HepG2 cells = test: cellular cystathionine by LC/ESI-MS/MS; format: cell-based, human; settings: 8 h, 100 μM Hcys and 100 μM Ser
Protocol: The effect of CH004 on the level of CTH in HepG2 cells was determined by a liquid chromatography-tandem mass spectrometry (LC/ESI-MS/MS). We followed a condition, which was previously established with LC/ESI-MS/MS[56], for quantification of CTH. […] We selected the 223.1 → 88.1 transition for the quantitative method. Briefly, after the incubation with the compounds for 8 h in the presence of 100 μM Hcys and 100 μM Ser, the HepG2 cells were lysed with liquid nitrogen. 10 μl supernatant was injected to the Ultra Performance Liquid Chromatographic system on a Zorbax XDB C18 reverse phase column (4.6 × 150 mm, temperature-controlled at 10 °C), and eluted isogradiently with a solution mixed from acetonitrile (in the presence of 0.1% formic acid) and water (0.1% formic acid) (2:98, v/v) at a flow rate of 0.4 ml/min in a diode array detector (Agilent G4212A). The Agilent 6470 UHPLC-QqQ/MS system composes of a chomatographic system (Agilent 1260 Infinity) and a Triple Quad mass spectrometer fitted with an ESI source. Data was acquired in the MRM mode using Agilent MassHunter Workstation Data Acquisition Software (revision B.04).
Figure S14. […] All images are representative of three independent experiments. […] Means ± SDs (n=2).

Cn1nc(Cc2ccccc2)nc2c(=O)n(C)c(=O)nc1-2 [CH004, 3-benzyl-1,6-dimethylpyrimido[5,4-e][1,2,4]triazine-5,7(1H,6H)-dione]
decrease in H2S ([1]; 5 μM): 22%
decrease in H2S ([1]; 10 μM): 43%
level of cystathionine (CTH) (HepG2 cells): dose-dependently inhibits; also recorded: largely reduced
